The values below come from patent US12516053B2, “Bcl-2 inhibitors” (BEIGENE, LTD., priority 2019, dated 2026).

For experiment [1], the target named is Recombinant human Bcl-2 protein (Homo sapiens, UniProt P10415). Kind of experiment: Bcl-2 TR-FRET assay. The class given is binding. The following applies: TR-FRET, 0.05 nM Bcl-2, FITC labeled Bak peptide 0.5 nM; read-out: Biochemical assay (IC50, nM) Bcl-2 WT. The procedure:
Compounds disclosed herein were tested for blocking of Bcl-2 protein with its ligand in an assay based on Time-Resolved Fluorescence Resonance Energy Transfer (TR-FRET) methodology. Recombinant human 0.05 nM Bcl-2 protein was pre-incubated with a serial dilution of compounds disclosed herein (top final concentration is 1 uM or 0.1 uM or 0.02 uM or 0.01 uM, 10 points) at room temperature for 0.5 hour in an assay buffer containing 20 mM potassium phosphate buffer, pH 7.5, 50 mM NaCl, 1 mM EDTA, 0.05% Tween-20, 0.01% BSA. […] The inhibition percentage of Bcl-2 interaction with its ligand in presence of increasing concentrations of compounds was calculated based on the TR-FRET signals. The IC50 for each compound was derived from fitting the data to the four-parameter logistic equation by Graphpad Prism software or Dotmatics.

The target in the next experiment is BA/F3-BCL-2 cells (Homo sapiens, UniProt P10415). In words: BA/F3 cell proliferation assay, BCL-2 wild type. It counts as cell-based, Murine. The following applies: 24 hrs treatment, 3% FBS, CellTiter-Glo, geometric mean of 3 experiments; read-out: Cellular proliferation assay (IC50, nM) Bcl-2 WT; BaF3 cell. The protocol:
(§1) BA/F3 cell Proliferation Assay:
(§2) The cells were treated with a 10-point dilution series of compounds for 24 hrs. After the compound treatment, 30 μl of CellTiter-Glo reagent was added in each well. The effects on proliferation were determined using Cell TiterGlo reagent (Promega) according to the manufacturer's instructions. Luminescent signals were measured using PHERAstar FS plate reader (BMG Labtech). ICS50 values for cell viability were determined with GraphPad Prism software and were the geometric mean of 3 independent experiments.

Experiment [2] concerns Molt-4 (Bcl-xL-dependent ALL cell line). In words: Molt-4 cell proliferation assay. The class given is cell-based. The settings on record: Homo sapiens, MOLT-4; CellTiter-GLO; read-out: Cellular proliferation assay (IC50, nM) Molt-4. An excerpt: Molt-4 Cell Proliferation Assay:
Each compound was serially diluted with 10 1M as the maximum concentration. The anti-proliferative IC50s of these compounds were similarly determined as a percentage of viable cells upon treatment compared to the untreated control using CellTiter-GLO luminescent assay.

A further experiment addresses BA/F3-BCL-2 G101V cells (Homo sapiens, UniProt P10415, G101V, cells depend on it). Kind of experiment: BA/F3 cell proliferation assay, Bcl-2 G101V. The class given is cell-based, Murine. The settings on record: 24 hrs treatment, 3% FBS, CellTiter-Glo, geometric mean of 3 experiments; read-out: Cellular proliferation assay (IC50, nM) Bcl-2 G101V; BaF3 cell. The procedure:
as §1, §2

In experiment [3] the test system is RS4;11 (BCL-2 dependent acute lymphoblastic leukemia cell line). Kind of experiment: RS4;11 cell proliferation assay. The class given is cell-based. The settings on record: Homo sapiens, RS4-11, 48 hrs treatment, CellTiter-GLO, read-out: Cellular proliferation assay (IC50, nM) RS4. The protocol:
RS4;11 Cell Proliferation Assay:
Each compound was serially diluted with 1 μM as the maximum concentration. To test the apoptotic effect of the compounds, the cells were seeded at 50,000 in 180 μl per well in 96-well plates and treated with 10-point dilution series of each compound for 48 hrs at 37° C. Cell viability was assessed after the treatment using CellTiter-GLO luminescent assay (Promega) according to the manufacturer's recommendations. Briefly, 30 μl of CellTiter-GLO reagent was added into 200 μl of cell culture, Mixture was agitated on an orbital shaker for 5 mins to ensure cell lysis followed by 7 mins incubation at room temperature to allow development and stabilization of luminescent signals, which corresponded to quantity of ATP and thus the quantity of metabolically active cells. Luminescent signals were measured using PHERAstar FS reader (BMG). Mean IC50 values for cell viability were determined with GraphPad Prism software.

In experiment [4] the target is recombinant human Bcl-2-G101V protein (Homo sapiens, UniProt P10415, G101V). In words: Bcl-2-G101V TR-FRET assay. It counts as binding. The following applies: TR-FRET, 0.1 nM Bcl-2-G101V, FITC labeled Bak peptide 5 nM; read-out: Biochemical assay (IC50, nM) Bcl-2 G101V. The source says:
The IC50 for each compound was derived from fitting the data to the four-parameter logistic equation by Graphpad Prism software or Dotmatics.

Some results are limits rather than exact numbers.

As to `CC(C)c1ccccc1[C@@H]1CCCN1C1CC2(C1)CN(c1ccc(C(=O)NS(=O)(=O)c3ccc(NC[C@H]4CC[C@](C)(O)CC4)c([N+](=O)[O-])c3)c(N3CCCOc4nc5[nH]ccc5cc43)c1)C2` [Example B13, 2-(3,4-dihydro-2H-pyrrolo[3′,2′:5,6]pyrido[2,3-b][1,4]oxazepin-1(7H)-yl)-N-((4-((((1r,4r)-4-hydroxy-4-methylcyclohexyl)methyl)amino)-3-nitrophenyl)sulfonyl)-4-(6-((S)-2-(2-isopropylphenyl)pyrrolidin-1-yl)-2-azaspiro[3,3]heptan-2-yl)benzamide], the IC50 was 0.094 nM in experiment [1]; 2.8 nM at BA/F3-BCL-2 cells; over 10000 nM in experiment [2]; 5.5 nM in experiment [3]; 2.4 nM in experiment [4]. Moreover, the GI50 on BA/F3-BCL-2 G101V cells amounted to 39.1 nM.
